Source: publication PMC7615501 (Journal of immunology (Baltimore, Md. : 1950), 2021)

What was measured:
CD8+ T cell clone 6C5 [1] = test: Activation of clone 6C5 by peptide-pulsed T2 cells, MIP-1β ELISA; format: cell-based, human; settings: high purity (>95%) peptide preparations
HLA-A*0201 = HLA-A*0201 (Homo sapiens, UniProt P04439, D140Y/D185E/D98H/E176V/E277Q/G131W/G231S/I119V/I121R/I166T/I218V/L300P/L318F/N151K/N90K/P208A/P217A/Q86G/Q94H/R138H/R169H/T345S); settings: earlier work; cited from earlier work
CD8+ T cell clone 6C5 [2] = settings: earlier work; cited from earlier work

Substance	Functional response of clone 6C5, retest with high purity preparations (CD8+ T cell clone 6C5 [1])	Binding to HLA-A*0201 (HLA-A*0201)	Recognition by CD8+ T cell clone 6C5 (CD8+ T cell clone 6C5 [2])
FMAYFGVSA	inert		
LLSY(3-tBu)FGTPT		bound poorly to HLA-A*0201	recognize
LTAYMLLAI	inert		
